The record followed here is patent US8030518B2, “1,4 diamino bicyclic retigabine analogues as potassium channel modulators” (Valeant Pharmaceuticals International, priority 2006, dated 2011).

Each structure is given as a SMILES string. Some results are limits rather than exact numbers.

Broadly, the EC50 is the concentration needed to bring the measured effect to its halfway point.

One test deals with T1, KCNQ2/3 heteromultimers (Rattus norvegicus, UniProt O88943+O88944).
T1 construct: endogenous in cells; host or cells: PC-12 cells differentiated with NGF-7s; no transfection described
As to the kind of experiment: cell-based Rb+ efflux assay in PC-12 cells. The following applies: Rb+ efflux cellular assay. The procedure: Compounds of this invention formula were evaluated for activity toward potassium channels in a cell-based Rb^+ efflux assay. This cellular bioassay is believed to faithfully represent the M channel activities identified with KCNQ2/3 heteromultimers. […] Additionally, antiseizure activity in vivo was evaluated in a mouse maximal electroshock seizure (MES) model, and neurotoxicities were determined from a rotorod neurocognitive motor impairment model and open field observation.
PC-12 cells were grown at 37° C. and 5% CO2 in DMEM/F12 Medium (Dulbecco's Modified Eagle Medium with Nutrient Mix F-12, available from Invitrogen of Carlsbad, Calif.), supplemented with 10% horse serum, 5% fetal bovine serum, 2 mM glutamine, 100 U/ml penicillin, and 100 U/ml streptomycin. They were plated in poly-D-lysine-coated 96-well cell culture microplates at a density of 40,000 cells/well and differentiated with 100 ng/ml NGF-7s for 2-5 days. For the assay, the medium was aspirated, and the cells were washed once with 0.2 ml wash buffer (25 mM HEPES, pH 7.4, 150 mM NaCl, 1 mM MgCl2, 0.8 mM NaH2PO4, 2 mM CaCl2). The cells were then loaded with 0.2 ml Rb^+ loading buffer (wash buffer plus 5.4 mM […], 5 mM glucose) and incubated at 37° C. for 2 h. Attached cells were washed quickly three times with buffer (same as Rb^+ loading buffer, but containing 5.4 mM KCl instead of RbCl) to remove extracellular Rb^+. Immediately following the wash, 0.2 ml of depolarization buffer (wash buffer plus 15 mM KCl solution) with or without compounds was added to the cells to activate efflux of potassium ion channels. After incubation for 10 min at room temperature, the supernatant was carefully removed and collected. Cells were lysed by the addition of 0.2 ml of lysis buffer (depolarization buffer plus 0.1% Triton X-100) and the cell lysates were also collected. If collected samples were not immediately analyzed for Rb^+ contents by atomic absorption spectroscopy (see below), they were stored at 4° C. without any negative effects on subsequent Rb^+ analysis.
The concentrations of Rb^+ in the supernatants (Rb^+Sup) and the cell lysates (Rb^+Lys) were quantified using an ICR8000 flame atomic absorption spectrometer (Aurora Biomed Inc., Vancouver, B.C.) under conditions defined by the manufacturer. Samples 0.05 ml in volume were processed automatically from microtiter plates by dilution with an equal volume of Rb^+ sample analysis buffer and injection into an air-acetylene flame. The amount of Rb^+ in the sample was measured by absorption at 780 nm using a hollow cathode lamp as light source and a PMT detector. A calibration curve covering the range 0-5 mg/L Rb^+ in sample analysis buffer was generated with each set of plates. The percent Rb^+ efflux (F) was defined by F=[Rb^+Sup/(Rb^+Sup+Rb^+Lys)]×100%. […] The efflux (F) and compound concentration relationship was plotted to calculate an EC50 value, a compound's concentration for 50% of maximal Rb^+ efflux. Seizure Model Tests

Test [1] deals with maximal electroshock seizure. Kind of test: mouse maximal electroshock seizure (MES) test. Also noted: key: A: active; B: inactive. The following applies: ip dosing of 12.5 mg/kg. Format: in vivo. From the text: The MES testing protocol is based on procedures established at the National Institute of Neurological Disorders and Stroke in conjunction with the Anticonvulsant Screening Program (ASP) at the University of Utah (White, H. S., Woodhead, J. H., Wilcox, K. S., Stables, J. P., Kupferberg, H. J and Wolf, H. H. 2002. “General Principles: Discovery and Preclinical Development of Antiepileptic Drugs,” in Antiepileptic Drugs, 5th Edition, R. H. Levy, ed.; R. H. Mattson, B. S. Meldrum, and E. Perucca. Philadelphia, Lippincott Williams & Wilkins.), The goal of the test is to rapid identify and characterize the in vivo anticonvulsant activity of any compounds that have been shown active in PC-12 cellular based Rb^+ efflux assay.
Adult male CF-1 albino mice (18-25 g, Charles River Laboratories) are […] used for MES screening of compounds. Male Sprague-Dawley albino rats (100-125 g, Charles River Laboratories) are also used to test anticonvulsant compounds. Animals are permitted to rest and recover from transit for at least 48 hr prior to experimentation. Animals are used for AED testing only once. In some instances, the animals can be anesthetized prior to blood collection or whole brain extraction for pharmacokinetic assay. All animals are maintained and handled as outlined in standard animal care guidelines.
In the experiments, testing compounds are prepared as suspensions in 0.5% methyl cellulose (Sigma, Cat # M0512, Viscosity 4000 cP at 20° C.) in water, regardless of solubility. Dry powder compounds are initially ground with a glass rod in a test tube in several drops of methyl cellulose to create a paste and to break down any large chunks. After several minutes of grinding, the volume of the suspension is increased to the final concentration desired. The suspension is then sonicated using a Branson sonicator model 3510 in a water bath at room temperature for 15 minutes. Compound suspensions are further vortexed prior to animal dosing. In some of the cases, DMSO is used to initially solubilize compounds in small volumes and then this solution is added to the 0.5% methyl cellulose solution, in order to create more even and less aggregated compound suspensions. The final concentration of DMSO is 3.75%, an amount with no apparent toxicity or neuroprotective effects in our usual rotarod and MES tests. Methyl cellulose/DMSO compound suspensions are identically prepared for intraperitoneally (i.p.)dosing to mice or orally (p.o.) dosing to rats.
Initially the animals are weighed with an electronic scale and then marked. Data recording sheets are generated for each compound assessment. Mice or rats are dosed with the compound suspension at 0.01 mL/g of body weight. The typical injection volume range is between 180-250 μl for mice. Compounds are dosed by i.p. to mice using a 25 or 22 gauge needle, depending on the viscosity of the suspension. Rats are p.o. dosed using a flexible feeding tube, typically starting at a compound dose of 5 mg/kg.
A Rodent Electroconvulsive Stimulator (Model 200, Hamit-Darvin-Freesh, Snow Canyon Clinic, Ivins, Utah) is used for MES testing. A 60-Hz alternating current (50 mA for mice; 150 mA for rats) is delivered for 0.2 seconds through corneal electrodes to the mice. A drop of 0.5% tetracaine (Sigma, Cat. # T-7508) solution is placed on the eye prior to current delivery. The electrodes are subsequently placed gently onto the eyes of the animal and the electrical shock is initiated by triggering through a foot-pedal activator. The animals are restrained by hand and gently released as the shock is delivered and the seizure commences. Animals are monitored for hind limb tonic extension as the end point for this test. Current delivery is recorded as a measure of overall seizure-induction potential. Electrical current delivery can vary from approximately 30-55 mA (mice) or 90-160 mA (rats) depending on impedance in the animal and quality of the current delivery (i.e. correct placement of the electrodes on the cornea). […]
On the technique in general: Protection in the maximal electroshock model is a classic sign of anticonvulsant action.

For `Cc1cc2c(c(C)c1NC(=O)CC(C)(C)C)CCCC2Nc1ccc(Br)cc1` (stereo not shown) [Example 8, N-(1,3-dimethyl-5-(4-bromophenylamino)-5,6,7,8-tetrahydronaphthalen-2-yl)-3,3-dimethylbutanamide], the EC50 on KCNQ2/3 heteromultimers is 1 to 10 nM.
On KCNQ2/3 heteromultimers, `Cc1cc2c(c(C)c1NC(=O)CC(C)(C)C)CCCC2Nc1ccc(Cl)c(Cl)c1` (stereo not shown) [Example 6, N-(1,3-dimethyl-5-(3,4-dichlorophenylamine)-5,6,7,8-tetrahydronaphthalen-2-yl)-3,3-dimethylbutanamide] yielded an EC50 of 1 to 10 nM. Also, in test [1], the “Mouse MES test” value is reported as “B”.
For `Cc1cc2c(c(C)c1NC(=O)CC(C)(C)C)CCC2Nc1ccc(F)c(F)c1` (stereo not shown) [Example 21, N-(4,6-dimethyl-1-(3,4-difluorophenylamino)-2,3-dihydro-1H-inden-5-yl)-3,3-dimethylbutanamide], the EC50 at KCNQ2/3 heteromultimers fell in the range of 1 to 10 nM. Besides, the “Mouse MES test” value in test [1] is given as “A”.
On the same counts, the results for `Cc1cc2c(c(C)c1NC(=O)CC(C)(C)C)CCCC2Nc1cccc(Cl)c1` (stereo not shown) [Example 9, N-(1,3-dimethyl-5-(3-chlorophenylamino)-5,6,7,8-tetrahydronaphthalen-2-yl)-3,3-dimethylbutanamide] are 1 to 10 nM and “A”.
At KCNQ2/3 heteromultimers, `Cc1cc2c(c(C)c1NC(=O)CC(C)(C)C)CCC2Nc1ccc(F)cc1` (single isomer, unassigned; (+)) [Example 13, (+) N-(1-(4-fluorophenylamino)-4,6-dimethyl-2,3-dihydro-1H-inden-5-yl)-3,3-dimethylbutanamide] came in with an EC50 of 1 to 10 nM. In addition, the “Mouse MES test” value in test [1] is listed as “A”.
On the same counts, the results for `Cc1cc2c(c(C)c1NC(=O)CC(C)(C)C)CCC2Nc1ccc(F)nc1` (stereo not shown) [Example 23, N-(1-(6-fluoropyridin-3-ylamino)-4,6-dimethyl-2,3-dihydro-1H-inden-5-yl)-3,3-dimethylbutanamide] are 50 to 500 nM and “A”.
With `Cc1cc2c(c(C)c1NC(=O)CC(C)(C)C)CCC2Nc1ccc(C(F)(F)F)nc1` (stereo not shown) [Example 24, N-(1-(6-trifluoromethylpyridin-3-ylamino)-4,6-dimethyl-2,3-dihydro-1H-inden-5-yl)-3,3-dimethylbutanamide], the EC50 at KCNQ2/3 heteromultimers was in the range of 10 to 50 nM. Besides, the “Mouse MES test” value in test [1] is on record as “A”.
On the same counts, the results for `Cc1cc2c(c(C)c1NC(=O)CC(C)(C)C)CCCC2Nc1ccc(F)cc1` (single isomer, unassigned; (+)) [Example 4, (+)N-(5-(4-fluorophenylamino)-1,3-dimethyl-5,6,7,8-tetrahydronaphthalen-2-yl)-3,3-dimethylbutanamide] are 10 to 50 nM and “A”.
`CCOC(=O)Nc1ccc2c(c1)CCC2Nc1ccc(F)cc1` (stereo not shown) [Example 25, Ethyl 1-(4-fluorophenylamino)-2,3-dihydro-1H-inden-5-yl-carbamate] displayed an EC50 on KCNQ2/3 heteromultimers above 500 nM.
At KCNQ2/3 heteromultimers, `Cc1cc2c(c(C)c1NC(=O)CC(C)(C)C)CCCC2Nc1ccc(Cl)cc1` (stereo not shown) [Example 7, N-(1,3-dimethyl-5-(4-chlorophenylamino)-5,6,7,8-tetrahydronaphthalen-2-yl)-3,3-dimethylbutanamide] came in with an EC50 of 1 to 10 nM. Further, in test [1], the “Mouse MES test” value is given as “A”.
On the same counts, the results for `Cc1cc2c(c(C)c1NC(=O)CC(C)(C)C)CCC2Nc1cccc(Cl)c1` (stereo not shown) [Example 19, N-(4,6-dimethyl-1-(3-chlorophenylamino)-2,3-dihydro-1H-inden-5-yl)-3,3-dimethylbutanamide] are 1 to 10 nM and “A”.
On the same counts, the results for `Cc1cc2c(c(C)c1NC(=O)CC(C)(C)C)CCCC2Nc1ccc(F)cc1` (single isomer, unassigned; (-)) [Example 3, (−)N-(5-(4-fluorophenylamino)-1,3-dimethyl-5,6,7,8-tetrahydronaphthalen-2-yl)-3,3-dimethylbutanamide] are 1 to 10 nM and “A”.
On the same counts, the results for `Cc1cc2c(c(C)c1NC(=O)CC(C)(C)C)CCC2Nc1ccc(Cl)c(Cl)c1` (stereo not shown) [Example 20, N-(4,6-dimethyl-1-(3,4-dichlorophenylamine)-2,3-dihydro-1H-inden-5-yl)-3,3-dimethylbutanamide] are at most 1 nM and “A”.
In the case of `Cc1cc2c(c(C)c1NC(=O)CC(C)(C)C)CCCC2Nc1cc(F)cc(F)c1` (stereo not shown) [Example 10, N-(1,3-dimethyl-5-(3,5-difluorophenylamino)-5,6,7,8-tetrahydronaphthalen-2-yl)-3,3-dimethylbutanamide], the EC50 on KCNQ2/3 heteromultimers is 1 to 10 nM. In test [1], the “Mouse MES test” value was “A”.
On the same counts, the results for `Cc1cc2c(c(C)c1NC(=O)CC(C)(C)C)CCC2Nc1ccc(Br)cc1` (stereo not shown) [Example 18, N-(4,6-dimethyl-1-(4-bromophenylamino)-2,3-dihydro-1H-inden-5-yl)-3,3-dimethylbutanamide] are at most 1 nM and “A”.
`Cc1c(Br)c2c(c(C)c1NC(=O)CC(C)(C)C)CCCC2Nc1ccc(C(F)(F)F)cc1` (stereo not shown) registered a concentration for a half-maximal effect (EC50) at KCNQ2/3 heteromultimers above 500 nM.
`Cc1cc2c(c(C)c1NC(=O)CC(C)(C)C)CCCC2Nc1ccc(F)cc1` (stereo not shown) [Example 2, N-(5-(4-fluorophenylamino)-1,3-dimethyl-5,6,7,8-tetrahydronaphthalen-2-yl)-3,3-dimethylbutanamide] showed an EC50 on KCNQ2/3 heteromultimers of 10 to 50 nM. Further, the “Mouse MES test” value in test [1] was “A”.
